Assay results taken from US20130039956A1, “USE OF NITROCARBOXYLIC ACIDS FOR THE TREATMENT, DIAGNOSIS AND PROPHYLAXIS OF AGGRESSIVE HEALING PATTERNS” (priority 2010, published 2013).

Legend:
[1] = test system: canine cutaneous mastocytoma cells; assay: Toxin response of mast cells (mastoparan, Streptolysin O, UVB); type: cell-based; conditions: preincubation 10 and 100 μmol, compared with native FA
Description: In order to determine membrane stabilizing and anticytotoxic properties of nitrated fatty acids, an in vitro model utilizing canine cutaneous mastocytoma cells was chosen. Cells were cultured according to standard procedure. Cytotoxic effects were quantified by measuring not only by Ca^2+ influx, histamine, and TNFα release, but also by using the MTT assay. Cell suspensions were incubated with 0.9% saline, one of the nitrocarboxylic acids as listed in table 1 or the respective native fatty acid as to achieve a final concentration of 10 and 100 μmol which was given to the medium 15 min before toxin application.
Mastoparan suspended in a buffer solution was added to the preincubated mast cell suspensions to achieve a final concentration of 10 or 30 μmol, respectively. Measurements were performed after 1 hour incubation time. […] Preincubation of mast cells with nitrated fatty acids reduced the effects on Ca^2+ influx, histamine release, and apoptosis induction in a dose-dependent manner, with an almost complete absence of apoptosis at a concentration of 100 μmol.
Streptolysin O was given to preincubated suspensions to achieve a final concentration of 500 ng/ml. Measurements were performed after 2 hours. Releases of histamine and TNFα in the suspensions were measured. After saline preincubation, a significant release of histamine and TNFα was observed.
Cell plates were exposed to a single dose (250 mJ/cm2) of UVB using a lamp (Saalmann, Herford, Germany) emitting most of its energy within the UVB range (295 to 315 nm). Tryptase levels in the supernatants were determined after 30 minutes, and concentrations of TNFα after 60 minutes. After preincubation with saline, there was a marked increase of tryptase. Preincubation with native fatty acids led to a dose-dependent reduction of tryptase release, which was significant at the lower irradiation dose but not after exposure to a high irradiation dose. […] For all nitrated fatty acids that were used the results were mostly inside the same range. Relative differences can be represented as follows: […]

[2] = test system: Human peripheral blood mononuclear cells (PBMCs); assay: Adhesion of serum proteins and monocyte activation induced by coated silicone; type: cell-based; conditions: dip-coated silicone, PBMCs 3 days; compared with native FA; further: key: 0: not superior to native FA (control); +: Superior to native FA; ++: superior to both; +++: outstanding effect
Description: In order to determine the effect of coating implant materials with nitro fatty acids to reduce adsorption of adhesion molecules and monocyte activation, sterile silicone sheets were out in small pieces and coated with respective nirocarboxylic acid and the corresponding native fatty acids by dip coating. Uncoated silicone pieces served as controls. For each fatty acid two sets of silicone pieces were bathed in freshly drawn human serum for 1 hour at 37° C., and another two sets were bathed in saline solutions. One set of both coated and uncoated pieces was analyzed immediately for adhesion proteins and the other set was placed in 96-well plates after rinsing the silicone pieces. Human peripheral blood mononuclear cells (PBMCs), isolated from three healthy subjects, were added to each well. Wells were incubated for 3 days under standard conditions. Culture supernatants were assayed for IL-1beta, IL-6, IL-8, and chemoattractant protein 1 (MCP-1) levels at the start and end of experiments.
Before analyzing the silicone pieces for protein adsorption, they were bathed in saline for 5 minutes. Thereafter, one side was rinsed with saline as performed for both sides in the set used for culturing. There was marked adsorption of fibrinogen and […] C5b-9 on the uncoated silicone. […] No protein was found on the surface of the nitro fatty acid-coated sample that was rinsed, thus, indicating the weak adherence of serum proteins.

Cardiomyocytes = assay: TGF-β1-inducible formation of extracellular matrix in cardiomyocytes under shear stress; type: cell-based; conditions: 10-100 μmol, shear stress up to 100 dyn/cm^2; compared with native FA; further: key: 0: not superior to native FA (control); +: Superior to native FA; ++: superior to both; +++: outstanding effect
Description: Characterizing features of the fibrous remodelling in the heart are accentuated expression and deposition of extracellular matrix proteins (ECM). This has been attributed to increased mechanical forces via autocrine release of transforming growth factor-beta (TGF-beta). […] An established cell culture model was used to investigate the effect of shear stress on cardiomyocytes. Cardiomyocytes were cultured and transferred to a matrigel substrate. Plates with confluenced cells were placed into a shear force injury device (SFID). The SFID design is based on a cone-and-plate construction which is a well-defined rheological model in which a homogenously distributed laminar flow over the surface of the cells is generated by a rotating cone. The conical surface is positioned above a stationary flat plate and the fluid medium between these two surfaces is set in motion by rotating the cone to create a uniform level of fluid shear stress throughout the entire surface of the cells cultured on the coverslips.
A peak shear stress of 100 dyn/cm^2 could be applied without significant cell detachment enabling a maximum injury severity of 46%. Cells were exposed to FCS 1% without or with nitro-fatty acid, and the corresponding native fatty acid in a dosage range between 10 μmol and 100 μmol, 10 seconds before shear force application. Shear force peaks up to 100 dyn/cm^2 with a duration of 30 msec each with a repetition frequency of 60/minute were applied for 5, 10, 30 and 60 minutes. Thereafter the cell plates were washed and placed in FCS 1% for 24 hrs. The supernatant of the shear force investigation as well as that of the following culture phase was analysed. It could be shown that TGF-beta and ECM proteins (collagen I, fibronectin, laminin, elastin) increased after treatment in the control groups.

[3] = test system: female Sprague-Dawley rats; assay: Fibrogenesis in an in-vivo model of soft implant implantation; design: species or system rat; conditions: subcutaneous implants, 120 days, compared with native FA; further: key: 0: not superior to native FA (control); +: Superior to native FA; ++: superior to both; +++: outstanding effect
Description: Silicone bag-gel miniprostheses (POLYTECH Health & Aesthetics GmbH, Dieburg, Germany) having a diameter of 2 cm and a volume of approximately 2 ml were used. […] The experimentally used implant models had two small tags which allowed the implants to be suspended during the coating procedures.
Each implant was treated in the following manner: cleaning by sonication for 2 min each in the following sequence of solvents: acetone, toluene, acetone, ethanol, and water. Implants were exposed to Piranha solution for 60 min and rinsed with deionized water. They were then immersed in a 20% aqueous solution of ammonium fluoride for 45 min to obtain a hydrogen-passivated Si surface. The ammonium fluoride solution was sparged with nitrogen for 15 min to remove dissolved oxygen. Prepared implants were transferred to a glass chamber filled with an inert atmosphere where they were suspended so that no part of their surface came in contact with the container. The container was filled with a 1-hexadecene solution and heated at 150° C. at a pressure of 2 Torr for 120 min. Prepared implants were cleaned in the following sequence of solvents: acetone, ethanol, and water. Formation of self assembled monolayer was controlled by measuring surface hydrophobicity; the contact angle was about 105°. Dry implants suspended in the container were then bathed in an ethanolic solution of oleic acid or nitro-oleic acid at a temperature of 40° C. for 120 min. Thereafter, the solution was allowed to run out slowly through an outlet at the bottom of the container. The emptying container was filled with inert gas in which the samples were maintained for 24 hours. Then samples were bathed three times in an ethanolic solution, followed by a final rinsing with sterile water. After drying, the container with the prepared implant was sterilized using ethylene oxide and stored at 20° C.
For in vivo testing, 24 uncoated and 24 coated implants were investigated in 24 female Sprague-Dawley rats (190-230 g). In the anesthetized animals, bilateral dorsal pockets in the subcutaneum were created by blunt dissection through paired paravertebral incisions. Each animal received one coated implant and one control implant on opposite sides, alternating sides on successive animals. Animals were housed and fed according to institutional standards for 120 days. Animals were sacrificed with chloroform. The implants and the adhering tissue were extracted by en bloc resection. The implants were cannulated and the liquid silicone gel was replaced by paraffin. Thereafter, the complete tissue block was prepared by standard means of histology, and stained with H&E or Masson's trichrome.

SMILES	Relative differences: effect on toxin response of mast cells [1]	Relative effect on serum protein adhesion and monocyte activation [2]	Relative efficacy to suppress TGF-beta and ECM proteins in cardiomyocytes (Cardiomyocytes)	Relative effect of surface coating on fibrogenesis around silicone implants [3]
CCCCCCCC/C=C(\CCCCCCCC(=O)O)[N+](=O)[O-] [compound 9, 9-nitro-trans-oleic acid]	++	+	+	+
CCCCC=C(C=CC=CCCCCCCCC(=O)O)[N+](=O)[O-] [compound 11, 13-nitro-octadeca-9,11,13-trienoic acid]	+	+	+	+
CCCCCC=CCC=C(CC=CC/C=C\CCCC(=O)O)[N+](=O)[O-] [compound 22, 11-nitro-cis-5,8,11,14-eicosatetraenoic acid]	++	+	++	++
